Source: BindingDB's records for doi:10.7270/Q2JM282R (University of Pittsburgh, 2008)

Target: RAC-alpha serine/threonine-protein kinase (Homo sapiens, UniProt P31749)
Experiment: AKT1 kinase inhibition by PKD hits, dose response, selectivity assay for PKD inhibitor project, biochemical, 57K library, IC50 (AID 1378)

Chain of RAC-alpha serine/threonine-protein kinase (P31749 whole entry): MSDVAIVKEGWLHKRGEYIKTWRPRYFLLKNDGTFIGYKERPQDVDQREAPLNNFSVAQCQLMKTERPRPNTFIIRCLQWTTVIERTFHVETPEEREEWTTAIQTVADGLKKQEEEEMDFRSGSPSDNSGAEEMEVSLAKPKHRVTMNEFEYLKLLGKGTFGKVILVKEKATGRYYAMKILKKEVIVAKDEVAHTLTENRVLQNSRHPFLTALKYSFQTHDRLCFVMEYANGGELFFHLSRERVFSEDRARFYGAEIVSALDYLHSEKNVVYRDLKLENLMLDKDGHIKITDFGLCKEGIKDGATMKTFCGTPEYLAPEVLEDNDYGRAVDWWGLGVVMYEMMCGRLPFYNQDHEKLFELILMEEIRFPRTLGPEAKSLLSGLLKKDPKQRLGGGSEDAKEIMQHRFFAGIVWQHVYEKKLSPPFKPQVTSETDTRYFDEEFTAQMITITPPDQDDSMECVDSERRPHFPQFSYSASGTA

| IC50 [µM] | SMILES |
| --- | --- |
| > 100 | COc1ccc(Cn2c(=O)[nH]c3cc(C(=O)NC4CCCC4)ccc3c2=O)cc1 [MLS000730065] |
| > 100 | Cc1cc(NC(=O)CCC(=O)N(Cc2ccco2)C(C(=O)NCC2CCCO2)c2ccncc2)no1 (stereo not drawn) [N'-(furan-2-ylmethyl)-N-(5-methyl-1,2-oxazol-3-yl)-N'-[2-oxidanylidene-2-(oxolan-2-ylmethylamino)-1-pyridin-4-yl-ethyl]butanediamide] |
| > 100 | O=C(CSc1ccncc1)Nc1ccc2ccccc2c1 [N-naphthalen-2-yl-2-pyridin-4-ylsulfanylacetamide] |
| > 100 | O=C(NNC1=Nc2cccc3cccc1c23)c1ccc(Br)cc1 [SMR000260645] |
| > 100 | O=C(Nc1ccccc1C(=O)N1CCCC1)C1COc2ccccc2O1 (stereo not drawn) [SMR000287780] |
| > 100 | COC(=O)c1c(NC(=O)C2C3CCC(C3)C2C(=O)O)sc2c1CCCCC2 (stereo not drawn) [SMR000298221] |
| > 100 | COc1ccc(CNC(=O)C2Cc3ccccc3CN2C(=O)c2ccco2)cc1 (stereo not drawn) [SMR000343177] |
| > 100 | Cn1cccc1C(=O)NC(=O)COC(=O)c1cc(S(=O)(=O)N2CCCCC2)ccc1Cl [[2-[(1-methylpyrrol-2-yl)carbonylamino]-2-oxidanylidene-ethyl] 2-chloranyl-5-piperidin-1-ylsulfonyl-benzoate] |

The remaining lines, values behind:

| SMILES | IC50 [µM] |
| --- | --- |
| CSc1ccccc1C(=O)NCc1ccc(F)cc1 | > 100 |
| O=C(CSc1ccc2nnc(-c3cccnc3)n2n1)c1ccccc1 [1-phenyl-2-[[3-(3-pyridinyl)-[1,2,4]triazolo[4,3-b]pyridazin-6-yl]thio]ethanone] | > 100 |
| CCOC(=O)c1sc(=NC(=O)CCS(=O)(=O)c2ccccc2)n(C)c1C [2-[3-(benzenesulfonyl)-1-oxopropyl]imino-3,4-dimethyl-5-thiazolecarboxylic acid ethyl ester] | > 100 |
| CCCc1cc(=O)[nH]c(SCCCCN2C(=O)c3ccccc3C2=O)n1 [2-[4-[(4-oxidanylidene-6-propyl-1H-pyrimidin-2-yl)sulfanyl]butyl]isoindole-1,3-dione] | > 100 |
| Cc1c(C#N)c(N)nc(Cl)c1C#N [2-amino-6-chloro-4-methyl-3,5-pyridinedicarbonitrile] | > 100 |
| CC(N=Nc1ncc(Cl)cc1Cl)c1ccccn1 (stereo not drawn) [3,5-dichloro-N-(1-pyridin-2-ylethylideneamino)pyridin-2-amine] | > 100 |
| O=C1CSCN1c1cc(Cl)ccc1Cl [3-(2,5-dichlorophenyl)-1,3-thiazolan-4-one] | > 100 |
| O=C(O)c1cc(C(=O)C2CCCCC2)c[nH]1 [4-(cyclohexylcarbonyl)-1H-pyrrole-2-carboxylic acid] | > 100 |
| CC1Cc2ccccc2N1c1ncnc(N)c1[N+](=O)[O-] (stereo not drawn) [6-(2-methyl-2,3-dihydro-1H-indol-1-yl)-5-nitro-4-pyrimidinamine] | > 100 |
| O=[N+]([O-])c1ccc(Nc2c3ccccc3nc3ccccc23)cc1 [MLS000723809] | > 100 |
